Measurements: patent US7196108B2, “Bicyclic heterocycles for the treatment of diabetes and other diseases” (Incyte San Diego Inc., priority 2002, dated 2007)
“Also recorded” adds a separate entry of the source.

How the values were obtained:
KKA^y mice = assay: Oral administration in the treatment of type 2 diabetes in KKA^y mice (serum glucose and triglycerides); type: in vivo, mouse; details: 15 mg/kg oral gavage once daily in sesame oil, days 7 and/or 14, vs control; for serum glucose level: FIG. 2; for serum triglyceride level: FIG. 3
Procedure: These models include among others, db/db mice, ob/ob mouse, and KKA^y mice. […] A procedure for such experiments was described in detail in Iwatsuka, et al., 1970 General Survey of Diabetic Features of Yellow KK Mice. Endocrinol. Japon. 17: 23–35, incorporated herein by reference. The testing of the compounds of the invention was conducted as described in Example 22. The animals were treated with a single daily oral dose of 15 mg/kg of the test compound suspended in sesame oil (dose volume of 3–5 ml/kg). At the end of one and two weeks of treatment the animals were bled from the tail vein and their serum glucose and triglycerides and/or cholesterol was measured in duplicate.
Experimental Procedure: Six to eight week-old male KKA^y mice (available from Jackson Labs of Bar Harbour, Me.) were housed in a fixed 12–12-hr artificial light-dark cycle, and maintained on a standard rodent diet provided ad libitum. Animals were allowed two days to acclimate in this experimental environment prior to the initiation of the study. Prior to initiation of treatment, the animals were bled from the tail vein (100–200 μL of whole blood) and serum levels of glucose and triglycerides were measured in duplicate (Trinder kits; Sigma, St.Louis, Mo.). Based on these initial measures, animals were sorted into groups with approximately the same average serum triglyceride levels. Once sorted, the animals were housed one per cage and provided rodent diet ad libitum.
Treatment group A (n=6/group): • 1) KKA^y control (sesame oil) • 2) Compound 1 (15 mg/kg)
Treatment group B (n=6/group): • 1) KKA^y control (sesame oil) • 2) Compound 6 (15 mg/kg)
Treatment group C (n=6/group): • 1) KKA^y control (sesame oil) • 2) Compound 9 (15 mg/kg)
All compounds were suspended in sesame oil, and administered to animals in a volume of 3 ml/kg/dose. All treatments were administered by oral gavage once daily.
To monitor the effect of the tested Compounds, animals were bled at the end of the dark cycle on days 7 and/or 14 of the treatment period. Serum glucose and triglyceride levels were measured in duplicate. The blood was kept at room temperature to allow coagulation, after which the serum was separated and assayed for glucose and triglyceride levels.

[1] = disclosed in U.S. Pat. No. 6,515,003; cited from earlier work
3T3-L1 pre-adipocytes = details: disclosed in U.S. Pat. No. 6,515,003; cited from earlier work

Row | melting point [°C] | Compound | serum glucose level (KKA^y mice) | serum triglyceride level (KKA^y mice) | activity for the treatment of diabetes [1] | adipocyte differentiation activity (3T3-L1 pre-adipocytes)
1 | – | COc1c(F)cc(/C=C2\SC(=O)NC2=O)c(F)c1-c1cc(CC(C)C)cc2c1OCC2(C)C [Compound 6, 5-[2,5-Difluoro-3-(5-isobutyl-3,3-dimethyl-2,3-dihydro-benzofuran-7-yl)-4-methoxy-benzylidene]-thiazolidine-2,4-dione] | significantly lowered; also recorded: reduction | lowered; also recorded: reduction | – | –
2 | – | CC1(C)COc2c(-c3cc(/C=C4\SC(=O)NC4=O)ccc3OC(F)(F)F)cc(-c3ccoc3)cc21 [Compound 9, 5-[3-(5-Furan-3-yl-3,3-dimethyl-2,3-dihydro-benzofuran-7-yl)-4-trifluoromethoxy-benzylidene]-thiazolidine-2,4-dione] | significantly lowered; also recorded: reduction | lowered; also recorded: reduction | – | –
3 | – | Cc1cc2c(cc1-c1cc(/C=C3\SC(=O)NC3=O)ccc1OC(F)(F)F)C(C)(C)CCC2(C)C [Compound 20, 5-[3-(3,5,5,8,8-Pentamethyl-5,6,7,8-tetrahydro-naphthalen-2-yl)-4-trifluoromethoxy-benzylidene]-thiazolidine-2,4-dione] | – | – | active | active
4 | 142 to 146 | CC(C)Cc1cc(-c2cc(/C=C3\SC(=O)NC3=O)ccc2OC(F)(F)F)c2c(c1)C(C)(C)CO2 [Compound 1, 5-[3-(5-Isobutyl-3,3-dimethyl-2,3-dihydro-benzofuran-7-yl)-4-trifluoromethoxy-benzylidene]-thiazolidine-2,4-dione] | significantly lowered; also recorded: reduction | lowered; also recorded: reduction | – | –
